In ChEMBL document CHEMBL2346534, “Design, synthesis and in vitro anti-proliferative activity of 4,6-quinazolinediamines as potent EGFR-TK inhibitors” (Eur J Med Chem, 2013) one finds inhibition data, which are given here for eleven compounds.

For the test, the target named is Epidermal growth factor receptor (Homo sapiens, UniProt P00533). Conditions: at 10 µM.

Each structure is given as a SMILES string.
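Further: EGFR tyrosine kinase activity on a poly(Glu,Tyr) substrate, read out by Kinase-Glo Plus luminescence after a 40 min reaction.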

Sequence of Epidermal growth factor receptor (P00533 whole entry): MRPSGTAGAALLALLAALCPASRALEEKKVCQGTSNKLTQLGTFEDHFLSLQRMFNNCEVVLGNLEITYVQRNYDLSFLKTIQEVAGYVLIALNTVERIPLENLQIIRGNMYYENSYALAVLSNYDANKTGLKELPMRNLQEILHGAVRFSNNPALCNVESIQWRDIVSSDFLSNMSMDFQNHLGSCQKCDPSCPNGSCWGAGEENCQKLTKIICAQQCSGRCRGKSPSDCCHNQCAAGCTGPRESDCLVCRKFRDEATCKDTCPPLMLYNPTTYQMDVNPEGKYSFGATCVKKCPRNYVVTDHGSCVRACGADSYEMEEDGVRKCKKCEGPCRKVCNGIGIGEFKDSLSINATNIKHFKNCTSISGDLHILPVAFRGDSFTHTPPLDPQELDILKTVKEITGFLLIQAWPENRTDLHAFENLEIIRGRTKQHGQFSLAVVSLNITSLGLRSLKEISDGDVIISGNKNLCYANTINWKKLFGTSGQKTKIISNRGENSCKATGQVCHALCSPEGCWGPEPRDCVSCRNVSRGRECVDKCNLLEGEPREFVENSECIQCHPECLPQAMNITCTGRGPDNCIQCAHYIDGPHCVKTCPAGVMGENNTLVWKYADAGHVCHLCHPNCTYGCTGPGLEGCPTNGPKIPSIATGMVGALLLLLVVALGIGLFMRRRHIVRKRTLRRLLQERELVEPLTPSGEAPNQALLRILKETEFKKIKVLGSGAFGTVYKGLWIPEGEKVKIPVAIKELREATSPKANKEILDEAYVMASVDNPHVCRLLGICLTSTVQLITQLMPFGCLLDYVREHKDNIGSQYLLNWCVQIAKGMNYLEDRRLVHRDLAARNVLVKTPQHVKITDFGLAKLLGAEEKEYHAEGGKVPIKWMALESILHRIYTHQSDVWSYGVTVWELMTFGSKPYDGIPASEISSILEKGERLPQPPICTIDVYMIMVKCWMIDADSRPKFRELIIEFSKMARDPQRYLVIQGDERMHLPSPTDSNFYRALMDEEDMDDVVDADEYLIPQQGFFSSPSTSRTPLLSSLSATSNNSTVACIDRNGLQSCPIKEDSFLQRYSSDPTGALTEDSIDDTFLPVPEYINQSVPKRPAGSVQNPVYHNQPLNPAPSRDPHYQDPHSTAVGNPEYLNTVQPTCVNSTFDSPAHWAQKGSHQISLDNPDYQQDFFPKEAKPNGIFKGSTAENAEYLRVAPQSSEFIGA
Description: Inhibition of EGFR tyrosine kinase (unknown origin) using poly (Glu,Tyr) as substrate at 10 uM after 40 mins by Kinase-Glo Plus luminescence kinase assay

The term inhibition denotes the share of the control response that was lost under treatment. As to `CCOC(=O)C(=CNc1ccc2ncnc(Nc3ccc(Cl)cc3Cl)c2c1)C(=O)OCC`, the inhibition stood at 90%.
`CCOC(=O)/C(C#N)=C\Nc1ccc2ncnc(Nc3ccc(O)cc3)c2c1` gave an inhibition of 100%.
`Nc1ccc2ncnc(Nc3ccccc3Cl)c2c1` came in with an inhibition of 90%.
The compound `CCOC(=O)C(=CNc1ccc2ncnc(Nc3cccc(Br)c3)c2c1)C(=O)OCC` came in with an inhibition of 100%.
`CCOC(=O)/C(C#N)=C\Nc1ccc2ncnc(Nc3ccccc3CC)c2c1` had an inhibition of 84%.
In the case of `CCOC(=O)C(=CNc1ccc2ncnc(Nc3ccc(Cl)cc3)c2c1)C(=O)OCC`, the inhibition was determined as 82%.
For `CCOC(=O)C(=CNc1ccc2ncnc(Nc3ccccc3Cl)c2c1)C(=O)OCC` the value was 100%; for `CCOC(=O)C(=CNc1ccc2ncnc(Nc3ccc(O)cc3)c2c1)C(=O)OCC`, 100%; for `CCOC(=O)/C(C#N)=C\Nc1ccc2ncnc(Nc3cccc(O)c3)c2c1`, 100%.
For `CCOC(=O)/C(C#N)=C\Nc1ccc2ncnc(Nc3cccc(Br)c3)c2c1` the value was 100%; for `C#Cc1cccc(Nc2ncnc3ccc(NC=C(C(=O)OCC)C(=O)OCC)cc23)c1`, 100%.
